Laboratory results: patent US20250230193A1, “CYCLIC COMPOUND HAVING SELECTIVE KRAS INHIBITORY EFFECT ON HRAS AND NRAS” (CHUGAI SEIYAKU KABUSHIKI KAISHA, priority 2022, published 2025)

Assays:
[1] = molecular target: GDP-bound NRAS wild-type protein (Homo sapiens, UniProt P01111); assay: Binding to NRAS by surface plasmon resonance (SPR), Single Cycle Kinetics; conditions: SPR; for NRAS/KRAS (ratio of KD value with respect to NRAS to KD value with respect to KRAS): GDP-bound NRAS wild-type vs GDP-bound KRAS wild-type
[2] = molecular target: GDP-bound HRAS wild-type protein (Homo sapiens, UniProt P01112); assay: Binding to HRAS by surface plasmon resonance (SPR), Single Cycle Kinetics; conditions: SPR; for HRAS/KRAS (ratio of KD value with respect to HRAS to KD value with respect to KRAS): GDP-bound HRAS wild-type vs GDP-bound KRAS wild-type
GDP-bound HRAS wild-type protein, sequence (P01112 whole entry): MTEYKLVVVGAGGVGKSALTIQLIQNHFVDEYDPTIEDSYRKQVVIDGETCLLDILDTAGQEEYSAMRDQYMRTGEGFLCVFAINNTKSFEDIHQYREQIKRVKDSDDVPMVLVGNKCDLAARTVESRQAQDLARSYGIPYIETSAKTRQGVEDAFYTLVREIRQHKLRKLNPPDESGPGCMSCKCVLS

GDP-bound NRAS wild-type protein, sequence (P01111 whole entry): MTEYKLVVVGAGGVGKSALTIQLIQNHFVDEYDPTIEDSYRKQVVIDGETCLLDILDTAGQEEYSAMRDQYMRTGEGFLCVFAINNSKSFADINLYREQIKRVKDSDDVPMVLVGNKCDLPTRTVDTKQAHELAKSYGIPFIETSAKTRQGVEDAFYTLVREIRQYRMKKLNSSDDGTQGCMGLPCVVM

SMILES | NRAS/KRAS (ratio of KD value with respect to GDP-bound NRAS wild-type protein to KD value with respect to KRAS) [1] | HRAS/KRAS (ratio of KD value with respect to GDP-bound HRAS wild-type protein to KD value with respect to KRAS) [2] | NRAS/KRAS (ratio of KD value with respect to NRAS to KD value with respect to KRAS) [1] | HRAS/KRAS (ratio of KD value with respect to HRAS to KD value with respect to KRAS) [2]
CCO[C@@H]1C[C@H]2C(=O)NC3(CCC3)C(=O)N(C)[C@@H](C3CCCC3)C(=O)N(C)[C@H](C(=O)N3CCOCC3)CC(=O)N(C)[C@@H](CC(C)C)C(=O)N[C@@H](C3CC(F)(F)C3)C(=O)N(C)CC(=O)N(C)[C@H]3CCCCN(C3=O)[C@@H](Cc3ccc(C(F)(F)F)cc3)C(=O)N(C)CC(=O)N[C@@H](CCc3cc(F)c(C(F)(F)F)c(F)c3)C(=O)N2C1 [PP0807] | B (a compound having 3 or more and less than 10 is denoted as B) | B (a compound having 3 or more and less than 10 is denoted as B) |  | 
CC[C@H](C)[C@@H]1NC(=O)[C@H](CC(C)C)N(C)C(=O)C[C@@H](C(=O)N2CCOCC2)N(C)C(=O)[C@H](C2CCCC2)N(C)C(=O)C2(CCC2)NC(=O)[C@]2(C)CCCN2C(=O)[C@H](CCc2cc(F)c(C(F)(F)F)c(F)c2)NC(=O)CN(C)C(=O)[C@H](Cc2ccc(C(F)(F)F)cc2)N2CCCC[C@@H](C2=O)N(C)C(=O)CN(C)C1=O [PP0808] | B (a compound having 3 or more and less than 10 is denoted as B) | B (a compound having 3 or more and less than 10 is denoted as B) |  | 
CC[C@H](C)[C@@H]1NC(=O)[C@H](CC(C)C)N(C)C(=O)C[C@@H](C(=O)N2CCOCC2)N(C)C(=O)[C@H](C2CCCC2)N(C)C(=O)C2(CCC2)NC(=O)[C@@H]2C[C@@H](C(F)(F)F)CN2C(=O)[C@H](CCc2cc(F)c(C(F)(F)F)c(F)c2)NC(=O)CN(C)C(=O)[C@H](Cc2ccc(C(F)(F)F)cc2)N2CCCC[C@@H](C2=O)N(C)C(=O)CN(C)C1=O [PP0809] | B (a compound having 3 or more and less than 10 is denoted as B) | B (a compound having 3 or more and less than 10 is denoted as B) |  | 
CC[C@H](C)[C@@H]1NC(=O)[C@H](CC(C)C)N(C)C(=O)C[C@@H](C(=O)N2CCOCC2)N(C)C(=O)[C@H](C2CCCC2)N(C)C(=O)C2(CCC2)NC(=O)[C@@H]2[C@H]3C[C@H]3CN2C(=O)[C@H](CCc2cc(F)c(C(F)(F)F)c(F)c2)NC(=O)CN(C)C(=O)[C@H](Cc2ccc(C(F)(F)F)cc2)N2CCCC[C@@H](C2=O)N(C)C(=O)CN(C)C1=O [PP0810] |  |  | B (a compound having 3 or more and less than 10 is denoted as B) | B (a compound having 3 or more and less than 10 is denoted as B)
CCO[C@@H]1C[C@H]2C(=O)NC3(CCC3)C(=O)N(C)[C@@H](C(CC)CC)C(=O)N(C)[C@H](C(=O)N3CCOCC3)CC(=O)N(C)[C@@H](CC(C)C)C(=O)N[C@@H]([C@@H](C)CC)C(=O)N(C)CC(=O)N(C)[C@H]3CCCCN(C3=O)[C@@H](Cc3ccc(C(F)(F)F)cc3)C(=O)N(C)CC(=O)N[C@@H](CCc3cc(F)c(C(F)(F)F)c(F)c3)C(=O)N2C1 [PP0811] |  |  | B (a compound having 3 or more and less than 10 is denoted as B) | B (a compound having 3 or more and less than 10 is denoted as B)
CCOC1CC2C(=O)NC3(CCC3)C(=O)N(C)C(C(C)CC)C(=O)N(C)[C@H](C(=O)N3CCOCC3)CC(=O)N(C)[C@@H](CC(C)C)C(=O)N[C@@H]([C@@H](C)CC)C(=O)N(C)CC(=O)N(C)[C@H]3CCCCN(C3=O)[C@@H](Cc3ccc(C(F)(F)F)cc3)C(=O)N(C)CC(=O)N[C@@H](CCc3cc(F)c(C(F)(F)F)c(F)c3)C(=O)N2C1 (stereo partly drawn) [PP0812] |  |  | B (a compound having 3 or more and less than 10 is denoted as B) | B (a compound having 3 or more and less than 10 is denoted as B)
CCO[C@@H]1C[C@H]2C(=O)NC3(CCC3)C(=O)N(C)[C@@H](CC(F)F)C(=O)N(C)[C@H](C(=O)N3CCOCC3)CC(=O)N(C)[C@@H](CC(C)C)C(=O)N[C@@H]([C@@H](C)CC)C(=O)N(C)CC(=O)N(C)[C@H]3CCCCN(C3=O)[C@@H](Cc3ccc(C(F)(F)F)cc3)C(=O)N(C)CC(=O)N[C@@H](CCc3cc(F)c(C(F)(F)F)c(F)c3)C(=O)N2C1 [PP0813] |  |  | C (A compound having a KD ratio of 0.1 or more and less than 3 is denoted as C) | B (a compound having 3 or more and less than 10 is denoted as B)
CCO[C@@H]1C[C@H]2C(=O)NC3(CCC3)C(=O)N(C)[C@@H](C(C)(C)C)C(=O)N(C)[C@H](C(=O)N3CCOCC3)CC(=O)N(C)[C@@H](CC(C)C)C(=O)N[C@@H]([C@@H](C)CC)C(=O)N(C)CC(=O)N(C)[C@H]3CCCCN(C3=O)[C@@H](Cc3ccc(C(F)(F)F)cc3)C(=O)N(C)CC(=O)N[C@@H](CCc3cc(F)c(C(F)(F)F)c(F)c3)C(=O)N2C1 [PP0814] |  |  | B (a compound having 3 or more and less than 10 is denoted as B) | B (a compound having 3 or more and less than 10 is denoted as B)
CCO[C@@H]1C[C@H]2C(=O)NC3(CCC3)C(=O)N(C)[C@@H](C3CCCC3)C(=O)N(C)[C@H](C(=O)N3CCOCC3)CC(=O)N(C)[C@@H](CC(C)C)C(=O)N[C@@H]([C@H](C)CC)C(=O)N(C)CC(=O)N(C)[C@H]3CCCCCN(C3=O)[C@@H](Cc3ccc(C(F)(F)F)cc3)C(=O)N(C)CC(=O)N[C@@H](CCc3cc(F)c(C(F)(F)F)c(F)c3)C(=O)N2C1 [PP0815] |  |  | B (a compound having 3 or more and less than 10 is denoted as B) | B (a compound having 3 or more and less than 10 is denoted as B)
CCO[C@@H]1C[C@H]2C(=O)NC3(CCC3)C(=O)N(C)[C@@H](C3CCCC3)C(=O)N(C)[C@H](C(=O)N3CCOCC3)CC(=O)N(C)[C@@H](CC(C)C)C(=O)N[C@@H](C3CC(F)(F)C3)C(=O)N(C)CC(=O)N(C)[C@H]3CCCCCN(C3=O)[C@@H](Cc3ccc(C(F)(F)F)cc3)C(=O)N(C)CC(=O)N[C@@H](CCc3cc(F)c(C(F)(F)F)c(F)c3)C(=O)N2C1 [PP0816] |  |  | A (a compound having 10 or more and less than 20 is denoted as A) | B (a compound having 3 or more and less than 10 is denoted as B)
CC[C@H](C)[C@@H]1NC(=O)[C@H](CC(C)C)N(C)C(=O)C[C@@H](C(=O)N2CCOCC2)N(C)C(=O)[C@H](C2CCCC2)N(C)C(=O)C2(CCC2)NC(=O)[C@]2(C)CCCN2C(=O)[C@H](CCc2cc(F)c(C(F)(F)F)c(F)c2)NC(=O)CN(C)C(=O)[C@H](Cc2ccc(C(F)(F)F)cc2)N2CCCCC[C@@H](C2=O)N(C)C(=O)CN(C)C1=O [PP0817] |  |  | A (a compound having 10 or more and less than 20 is denoted as A) | B (a compound having 3 or more and less than 10 is denoted as B)
CC[C@H](C)[C@@H]1NC(=O)[C@H](CC(C)C)N(C)C(=O)C[C@@H](C(=O)N2CCOCC2)N(C)C(=O)[C@H](C2CCCC2)N(C)C(=O)C2(CCC2)NC(=O)[C@@H]2C[C@@H](C(F)(F)F)CN2C(=O)[C@H](CCc2cc(F)c(C(F)(F)F)c(F)c2)NC(=O)CN(C)C(=O)[C@H](Cc2ccc(C(F)(F)F)cc2)N2CCCCC[C@@H](C2=O)N(C)C(=O)CN(C)C1=O [PP0818] |  |  | B (a compound having 3 or more and less than 10 is denoted as B) | B (a compound having 3 or more and less than 10 is denoted as B)
CC[C@H](C)[C@@H]1NC(=O)[C@H](CC(C)C)N(C)C(=O)C[C@@H](C(=O)N2CCOCC2)N(C)C(=O)[C@H](C2CCCC2)N(C)C(=O)C2(CCC2)NC(=O)[C@@H]2[C@H]3C[C@H]3CN2C(=O)[C@H](CCc2cc(F)c(C(F)(F)F)c(F)c2)NC(=O)CN(C)C(=O)[C@H](Cc2ccc(C(F)(F)F)cc2)N2CCCCC[C@@H](C2=O)N(C)C(=O)CN(C)C1=O [PP0819] |  |  | A (a compound having 10 or more and less than 20 is denoted as A) | B (a compound having 3 or more and less than 10 is denoted as B)
CCO[C@@H]1C[C@H]2C(=O)NC3(CCC3)C(=O)N(C)[C@@H](C(CC)CC)C(=O)N(C)[C@H](C(=O)N3CCOCC3)CC(=O)N(C)[C@@H](CC(C)C)C(=O)N[C@@H]([C@@H](C)CC)C(=O)N(C)CC(=O)N(C)[C@H]3CCCCCN(C3=O)[C@@H](Cc3ccc(C(F)(F)F)cc3)C(=O)N(C)CC(=O)N[C@@H](CCc3cc(F)c(C(F)(F)F)c(F)c3)C(=O)N2C1 [PP0820] |  |  | A (a compound having 10 or more and less than 20 is denoted as A) | B (a compound having 3 or more and less than 10 is denoted as B)
CCO[C@@H]1C[C@H]2C(=O)NC3(CCC3)C(=O)N(C)[C@@H]([C@H](C)CC)C(=O)N(C)[C@H](C(=O)N3CCOCC3)CC(=O)N(C)[C@@H](CC(C)C)C(=O)N[C@@H]([C@@H](C)CC)C(=O)N(C)CC(=O)N(C)[C@H]3CCCCCN(C3=O)[C@@H](Cc3ccc(C(F)(F)F)cc3)C(=O)N(C)CC(=O)N[C@@H](CCc3cc(F)c(C(F)(F)F)c(F)c3)C(=O)N2C1 [PP0821] |  |  | A (a compound having 10 or more and less than 20 is denoted as A) | B (a compound having 3 or more and less than 10 is denoted as B)
